Assay results published in patent EP0679081B1, “PHARMACEUTICAL COMPOSITIONS FOR PREVENTION AND TREATMENT OF CANCEROUS DISEASE AND PROCESS FOR THEIR PREPARATION” (priority 1993, dated 1995).

System: Sp2/0-Ag14 mouse myeloma cells
Experiment: Effect on number of viable Sp2/0-Ag14 cells in culture (trypan blue dye exclusion count)
Conditions: for number of cells as compared to the number of untreated cells: substance used alone, statement in words
Method: In the experiments the newest methods approved by the scientific literature were used. In case of Sp2/0-Ag14 and K562 lines, the logarithmically growing cells were harvested from the medium and resuspended in a 96-well plate used for cell culture to a final concentration of 4x10^4 Sp2/0-Ag14 cells and 2x10^4 K562 cells, respectively, in 250 µl appropriate medium per well containing the tested materials in the indicated concentrations. In case of HeLa, HEp-2 and Vero cells, the cultured cells were harvested from 75 % confluent tissue culture flasks with 0.2 % trypsin and resuspended in the appropriate medium at a density of 10^5 cells/ml. Aliquots (100 µl) were dispensed into 96-well micro plates and incubated for 24 hours. Then the medium was discarded and replaced with 250 µl fresh medium containing the tested compounds in the indicated concentrations. All kinds of cells were allowed to proliferate for 48 hours. The number of viable Sp2/0-Ag14 and K562 cells was then counted microscopically with the trypan blue dye exclusion method. The survival of HeLa, HEp-2 and Vero cells was measured by assessing the endogenous alkaline phosphatase activity of the cells. Results were evaluated using Student's t-test. Data after the mean values in the Tables and signs in the Figures mean: "standard error of mean" (SEM).
In case of L-tryptophan for example the 2-4th control experiments show the effects of 0.002; 0.006; and 0.01 % by mass, resp., of L-tryptophan alone on the number of cells.
In Table 2 the amounts of materials expressed in % by mass and multiplied by 1000 are shown, thus the numbers in the Table should read by multiplying with 10^-3; for example in Example 21 in case of L-tryptophan the number 6 means 6 x 10^-3, that is 0.006 % by mass. The conditions of the experiments were the same as before.
To help the comparability with the earlier results Sp2/0-Ag14 cells were also used and the experimental conditions were the same as before. On the vertical axis the changes of the amounts of cells expressed in the percentage of the amounts of untreated cells are shown. On the horizontal axis the changes expressed in % of the compositions (changes of the amounts of the active ingredients) are shown. […] Thus, the 80 % composition of Example 99 contains every component in an amount of 80 %.
The composition of the control mixtures was given in connection with Table 1.
As a function of time the effect of the 100 % composition of Example 103 on Sp2/0-Ag14 cells was investigated and compared to the 100 % control mixture and to untreated cells. The experimental conditions were the same as in the previous experiments except that in this case the cells were counted not only after 48 hr but also after 6; 12; 24; and 36 hr. On the vertical axis the cell number/ml is shown. On the horizontal axis the time is shown in hours.

[1] = Table 1, number of cells after 48 hr incubation, mean ± SEM, untreated cells 59.1 ±3.2
[2] = Table 2 (first part), 48 hr, untreated cells = 100 %, mean ± SEM
[3] = Table 2 (first part), number of cells after 48 hr, mean ± SEM, untreated cells 74.3 ± 3.9
[4] = Table 2 (second part), number of cells after 48 hr, mean ± SEM, untreated cells 74.3 ± 3.9

| SMILES | CHANGE OF THE NUMBER OF CELLS (x 10^4) [1] | IN% OF THE UNTREATED CELLS (mouse, sp2/0-ag14 cells, 48 h) [%] | IN % OF THE UN-TREATED CELLS (mouse, sp2/0-ag14 cells, 48 h) [%] | further results |
| --- | --- | --- | --- | --- |
| N[C@@H](Cc1c[nH]c2ccccc12)C(=O)O [Control 2, L-tryptophan] | 61.7±3.0 x 10^4 | 104.4±5.0 | – | – |
| N[C@@H](Cc1c[nH]c2ccccc12)C(=O)O [Control 3, L-tryptophan] | 62.6±2.0 x 10^4 | 106.0±3.4 | – | – |
| N[C@@H](Cc1c[nH]c2ccccc12)C(=O)O [Control 4, L-tryptophan] | 63.0±3.4 x 10^4 | 106.6±5.8 | – | – |
| O=CC[C@H](O)[C@H](O)CO [Control 6, 2-deoxy-D-ribose] | 59.3±2.3 x 10^4 | – | – | – |
| O=CC[C@H](O)[C@H](O)CO [Control 7, 2-deoxy-D-ribose] | 59.8±1.2 x 10^4 | 101.1±2.2 | – | – |
| O=CC[C@H](O)[C@H](O)CO [Control 8, 2-deoxy-D-ribose] | 59.0 ±3.2 x 10^4 | 99.9 ±5.9 | – | – |
| Nc1ncnc2nc[nH]c12 [Control 10, adenine] | 60.5±1.4 x 10^4 | 102.4±2.5 | – | – |
| Nc1ncnc2nc[nH]c12 [Control 11, adenine] | 58.2 ±1.8 x 10^4 | 98.5 ±3.2 | – | – |
| Nc1ncnc2nc[nH]c12 [Control 12, adenine] | 58.6 ± 1.5 x 10^4 | 99.1 ± 2.8 | – | – |
| O=C(O)CC(O)C(=O)O (stereo not shown) [Control 14, malic acid] | 58.7 ± 2.1 x 10^4 | 99.3±3.7 | – | – |
| O=C(O)CC(O)C(=O)O (stereo not shown) [Control 15, malic acid] | 60.4 ± 1.7 x 10^4 | 102.2 ± 3.0 | – | – |
| O=C(O)CC(O)C(=O)O (stereo not shown) [Control 16, malic acid] | 58.8±2.5 x 10^4 | 99.5±4.5 | – | – |
| O=C1O[C@H]([C@@H](O)CO)C(O)=C1O [Control 18, L-ascorbic acid] | 58.2±1.4 x 10^4 | 98.5 ±2.5 | – | – |
| O=C1O[C@H]([C@@H](O)CO)C(O)=C1O [Control 19, L-ascorbic acid] | 56.7±2.1 x 10^4 | 96.0±3.7 | – | – |
| O=C1O[C@H]([C@@H](O)CO)C(O)=C1O [Control 20, L-ascorbic acid] | 56.3 ±2.6 x 10^4 | 95.2 ±4.8 | – | – |
| N[C@@H](Cc1ccccc1)C(=O)O [Control 22, L-phenylalanine] | – | – | – | IN % OF THE UN-TREATED CELLS [2]: 109.4 ± 4.0%; CHANGE OF THE NUMBER OF CELLS (x 10^4) [3]: 81.3 ± 3.0 x 10^4; number of cells as compared to the number of untreated cells (48 hr): slightly increased |
| N=C(N)NCCC[C@H](N)C(=O)O [Control 23, L-arginine] | – | – | – | IN % OF THE UN-TREATED CELLS [2]: 103.4 ± 1.8%; CHANGE OF THE NUMBER OF CELLS (x 10^4) [3]: 76.8 ± 1.3 x 10^4; number of cells as compared to the number of untreated cells (48 hr): slightly increased |
| N[C@@H](Cc1c[nH]cn1)C(=O)O [Control 24, L-histidine] | – | – | 108.7 ± 2.7 | CHANGE OF THE NUMBER OF CELLS (x 10^4) [3]: 80.7 ± 2.0 x 10^4; number of cells as compared to the number of untreated cells (48 hr): slightly increased |
| O=C(O)CCCC[C@@H]1SC[C@@H]2NC(=O)N[C@@H]21 [Control 25, d-biotin] | – | – | 99.9 ± 3.1 | CHANGE OF THE NUMBER OF CELLS (x 10^4) [3]: 74.2 ± 2.3 x 10^4 |
| Cc1ncc(CO)c(CO)c1O [Control 26, pyridoxine] | – | – | 91.0 ± 2.1 | CHANGE OF THE NUMBER OF CELLS (x 10^4) [3]: 67.6 ± 1.6 x 10^4 |
| CSCC[C@H](N)C(=O)O [Control 27, L-methionine] | – | – | 98.7 ± 3.6 | CHANGE OF THE NUMBER OF CELLS (x 10^4) [3]: 73.3 ± 2.7 x 10^4 |
| N[C@@H](Cc1ccc(O)cc1)C(=O)O [Control 28, L-tyrosine] | – | – | – | IN % OF THE UN-TREATED CELLS [2]: 94.9 ± 1.5%; CHANGE OF THE NUMBER OF CELLS (x 10^4) [3]: 70.5 ± 1.1 x 10^4 |
| Cc1cc2nc3c(=O)[nH]c(=O)nc-3n(C[C@H](O)[C@H](O)[C@H](O)CO)c2cc1C [Control 29, riboflavin] | – | – | 103.5 ± 2.2 | CHANGE OF THE NUMBER OF CELLS (x 10^4) [3]: 76.9 ± 1.7 x 10^4; number of cells as compared to the number of untreated cells (48 hr): slightly increased |
| O=C[C@@H](O)[C@@H](O)[C@H](O)[C@H](O)CO [Control 30, D-mannose] | – | – | 98.4 ± 1.5 | CHANGE OF THE NUMBER OF CELLS (x 10^4) [4]: 73.1 ± 1.1 x 10^4 |
| O=C(O)CNC(=O)c1ccccc1 [Control 31, N-benzoylglycine] | – | – | 99.8 ± 2.1 | CHANGE OF THE NUMBER OF CELLS (x 10^4) [4]: 74.2 ± 1.6 x 10^4 |
| Cc1cc2nc3c(=O)[nH]c(=O)nc-3n(C[C@H](O)[C@H](O)[C@H](O)COP(=O)(O)O)c2cc1C [Control 32, riboflavin-5'-phosphate] | – | – | 98.9 ± 1.8 | CHANGE OF THE NUMBER OF CELLS (x 10^4) [4]: 73.5 ± 1.3 x 10^4 |
| O=C(O)c1cc(=O)[nH]c(=O)[nH]1 [Control 33, orotic acid] | – | – | 94.2 ± 1.7 | CHANGE OF THE NUMBER OF CELLS (x 10^4) [4]: 70.0 ± 1.3 x 10^4 |
| N[C@@H](Cc1c[nH]c2ccccc12)C(=O)O [L-tryptophan] | – | – | – | number of cells as compared to the number of untreated cells (48 hr): increased slightly |
